Source: article PMC9667936, “Functional mapping of the 14-3-3 hub protein as a guide to design 14-3-3 molecular glues” (Chemical Science, 2022)
Where a SMILES comes first, the peptide text is derived from it.

T1: 14-3-3γ/ChREBP (Homo sapiens, UniProt P61981+Q9NP71)
T1 construct: made in house; host or cells: E. coli NiCo21 (DE3) for 14-3-3 gamma; ChREBP is a synthetic peptide
T1 sequence (P61981 1-247): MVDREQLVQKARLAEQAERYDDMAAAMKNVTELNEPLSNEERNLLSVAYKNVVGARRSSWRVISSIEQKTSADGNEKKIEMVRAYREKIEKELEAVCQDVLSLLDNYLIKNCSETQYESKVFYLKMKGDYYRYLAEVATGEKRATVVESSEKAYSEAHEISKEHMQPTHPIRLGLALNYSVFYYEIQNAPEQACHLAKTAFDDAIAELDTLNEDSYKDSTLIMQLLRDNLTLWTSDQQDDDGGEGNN
T1 sequence (Q9NP71 118-142 partner limits assumed): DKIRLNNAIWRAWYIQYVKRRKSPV

T2: ChREBP peptide (Homo sapiens, UniProt Q9NP71)
T2 chain: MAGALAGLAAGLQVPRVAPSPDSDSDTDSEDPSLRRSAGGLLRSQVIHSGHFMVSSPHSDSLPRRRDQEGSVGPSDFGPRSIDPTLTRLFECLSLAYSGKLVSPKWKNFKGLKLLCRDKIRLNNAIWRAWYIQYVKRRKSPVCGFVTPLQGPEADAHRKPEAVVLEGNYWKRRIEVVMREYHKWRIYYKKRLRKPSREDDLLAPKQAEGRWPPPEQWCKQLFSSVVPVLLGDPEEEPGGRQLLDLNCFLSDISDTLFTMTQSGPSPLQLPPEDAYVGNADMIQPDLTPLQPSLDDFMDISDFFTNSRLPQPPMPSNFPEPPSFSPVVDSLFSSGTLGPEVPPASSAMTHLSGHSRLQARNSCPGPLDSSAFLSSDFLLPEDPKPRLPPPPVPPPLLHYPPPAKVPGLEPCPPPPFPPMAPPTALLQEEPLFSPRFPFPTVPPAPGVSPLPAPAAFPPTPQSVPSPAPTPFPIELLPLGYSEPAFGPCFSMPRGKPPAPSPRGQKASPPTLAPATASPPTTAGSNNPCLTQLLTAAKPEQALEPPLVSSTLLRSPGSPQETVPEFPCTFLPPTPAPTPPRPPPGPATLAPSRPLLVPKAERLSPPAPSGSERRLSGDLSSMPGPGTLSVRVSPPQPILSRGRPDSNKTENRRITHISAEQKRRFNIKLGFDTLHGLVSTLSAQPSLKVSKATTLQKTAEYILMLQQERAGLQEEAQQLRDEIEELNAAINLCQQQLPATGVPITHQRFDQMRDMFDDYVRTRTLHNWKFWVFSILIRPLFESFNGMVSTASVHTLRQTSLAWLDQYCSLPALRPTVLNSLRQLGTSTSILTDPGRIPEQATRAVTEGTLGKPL

B1: 14-3-3γ (protein)
chain: VDREQLVQKARLAEQAERYDDMAAAMKNVTELNEPLSNEERNLLSVAYKNVVGARRSSWRVISSIEQKTSADGNEKKIEMVRAYREKIEKELEAVCQDVLSLLDNYLIKNCSETQYESKVFYLKMKGDYYRYLAEVATGEKRATVVESSEKAYSEAHEISKEHMQPTHPIRLGLALNYSVFYYEIQNAPEQACHLAKTAFDDAIAELDTLNEDSYKDSTLIMQLLRDNLTLWTSDQQDDDGGEGNN

How the values were obtained:
14-3-3γ/ChREBP = target: T1, 14-3-3γ/ChREBP; experiment: 2D FA titration of 14-3-3/ChREBP and cooperativity analysis with thermodynamic equilibrium model; assay type: binding; details: determined by the thermodynamic model from 2D FA titrations; 95% confidence interval; read-out: apparent binding affinity of ChREBP for 14-3-3 (K^IID)
Experimental: a four-parameter logistic model (4PL). Each measurement was performed in two independent […]
Fluorescence anisotropy (FA) - 2D-14-3-3/ChREBP titrations: 14-3-3γ was titrated in a 2-fold dilution series (starting at 300 µM 14-3-3γ) to 20 nM of fluorescein-labeled peptide 2d in FA buffer (10 mM HEPES pH 7.4, 150 mM NaCl, 0.1% (v/v) Tween20, 0.1% (w/v) BSA) in presence of 2-fold dilution series of unlabeled ChREBP peptide (0.01-10 µM). Dilution series were made in a polystyrene (non-binding) low-volume Corning Black Round Bottom 384-well plates (Corning 4514 or 4511). Measurements were performed directly after plate preparation, using a Tecan Infinite F500 plate reader at room temperature (lex: 485 ± 20 nm; lem: 535 ± 25 nm; mirror: Dichroic 510; flashes: 20; integration time: 50 ms; settle time:
0 ms; gain: optimal; and Z-position: calculated from well). Wells containing only FITC-peptide were used to set as G-factor at 35 mP. All data were analyzed using GraphPad Prism (7.00) for Windows and fitted using a four-parameter logistic model (4PL). […]
with R = 14-3-3, P = non-natural peptide (labelled), and C = ChREBP. The framework determined based on this system description the equilibrium equations needed to determine KDII and α. […] From this the model determined the KDII and α (with 95% confidence interval) and the error-landscape of the determine parameters. […]

ChREBP peptide = target: T2, ChREBP peptide; experiment: 2D fluorescence anisotropy titration, thermodynamic equilibrium model fit

Molecule	Kd (14-3-3γ/ChREBP)	Kd (ChREBP peptide)
CC[C@H](C)[C@H](NC(=O)[C@H](C)NC(=O)[C@H](CC(N)=O)NC(=O)[C@H](CC(N)=O)NC(=O)[C@H](CC(C)C)NC(=O)[C@H](CCCNC(=N)N)NC(=O)[C@@H](NC(=O)[C@H](CCCCN)NC(=O)[C@H](CC(=O)O)NC(C)=O)[C@@H](C)CC)C(=O)N[C@@H](Cc1c[nH]c2ccccc12)C(=O)N[C@@H](CCCNC(=N)N)C(=O)N[C@@H](C)C(=O)N[C@@H](Cc1c[nH]c2ccccc12)C(=O)N[C@@H](Cc1ccc(O)cc1)C(=O)N[C@H](C(=O)N[C@@H](CCC(N)=O)C(=O)N[C@@H](Cc1ccc(O)cc1)C(=O)N[C@H](C(=O)N[C@@H](CCCCN)C(=O)N[C@@H](CCCNC(=N)N)C(=O)N[C@@H](CCCNC(=N)N)C(=O)N[C@@H](CCCCN)C(=O)N[C@@H](CO)C(=O)N1CCC[C@H]1C(=O)N[C@H](C(N)=O)C(C)C)C(C)C)[C@@H](C)CC [ChREBP, reference compound] (Ac-DKIRLNNAIWRAWYIQYVKRRKSPV-NH2)	1.6 µM	–
B1	–	1.6 µM
